# Measured values from patent US20250325695A1, “NANOPARTICLE FOR USE IN A PROPHYLAXIS OR IN A TREATMENT OF A CALCIFICATION OF BRUCHS MEMBRANE AND DRUSEN” (Universität Münster, priority 2024, published 2025).
# Key:
# hCMEC/D3 cells = assay: WST-1 cytotoxicity assay, hCMEC/D3; type: cell-based, human; details: 24 h incubation, highest concentration of range 0.5 to 250 μg/ml, related to pure medium
# Protocol: (§1) hCMEC/D3 cells were cultivated using RPMI 1640 supplemented with 1% (v/v) non-essential amino acids, 1% ([…] (200 mM), 1% (v/v) gentamicin, 1% (v/v) sodium pyruvate (100 mM), 550 nM hydrocortisone, and 20% (v/v) FBS. Jurkat cells were cultivated using RPMI 1640 supplemented with 1% (v/v) of a mixture of penicillin (100 U/ml) and streptomycin (100 μg/ml), 1% ([…] (200 mM), 1% (v/v) gentamicin, and 10% (v/v) FBS. Both cell lines were stored in T75 cell culture flasks in an incubator at a temperature of 37° C. and 100% humidity at 5% CO2 atmosphere. The cells were split twice a week at a ratio of approximately 1:3. After thawing, all experiments were conducted within a maximum of 20 passages. To evaluate the cytotoxicity of the NP formulations a WST-1 assay (Roche Diagnostics, Mannheim, Germany) was conducted on Jurkat and hCMEC/D3 cell lines. Human macrophages and HUVECs were tested applying a XTT assay (Sigma-Aldrich Chemie GmbH, Munich, Germany). After seeding Jurkat and hCMEC/D3 cells in a 96 well plate at a density of 2×10^4 cells/well (hCMEC/D3 cells suspended in 100 μL, Jurkat cells suspended in 50 μL), they were cultured for 48 h with serum containing medium. […] After 30 min, the absorbance was measured again. […] The blank measurement was subtracted and the absorbances were correlated to the controls. […]
# Jurkat cells = assay: WST-1 cytotoxicity assay, Jurkat; type: cell-based, human; details: 24 h incubation, highest concentration of range 0.5 to 250 μg/ml
# Protocol: as §1
smiles,measurement,setting,value
"O=C(O)CN(CCN(CC(=O)O)CC(=O)O)CCN(CC(=O)O)CC(=O)O [DTPA, diethylenetriaminepentaacetic acid]","cell viability, hCMEC/D3 cells",hCMEC/D3 cells,78.4±6.9%
same,"cell viability, Jurkat cells",Jurkat cells,73.0±6.6%
